We go through 2 molecules from article PMC11990524, “Design and Synthesis of Novel 6-(Substituted phenyl)-[1,3]dioxolo[4′,5′:4,5]benzo[1,2-d]thiazole Compounds as Tyrosinase Inhibitors: In Vitro and In Vivo Insights” (Molecules, 2025).

Like-named read-outs stand apart in the source and are kept apart here.

The target of data set [1] is T1, B16F10 cellular tyrosinase (Mus musculus, UniProt P11344).
T1 construct: endogenous in cells; host or cells: B16F10 murine cells, stimulated with α-MSH and IBMX
T1 sequence (P11344 19-533): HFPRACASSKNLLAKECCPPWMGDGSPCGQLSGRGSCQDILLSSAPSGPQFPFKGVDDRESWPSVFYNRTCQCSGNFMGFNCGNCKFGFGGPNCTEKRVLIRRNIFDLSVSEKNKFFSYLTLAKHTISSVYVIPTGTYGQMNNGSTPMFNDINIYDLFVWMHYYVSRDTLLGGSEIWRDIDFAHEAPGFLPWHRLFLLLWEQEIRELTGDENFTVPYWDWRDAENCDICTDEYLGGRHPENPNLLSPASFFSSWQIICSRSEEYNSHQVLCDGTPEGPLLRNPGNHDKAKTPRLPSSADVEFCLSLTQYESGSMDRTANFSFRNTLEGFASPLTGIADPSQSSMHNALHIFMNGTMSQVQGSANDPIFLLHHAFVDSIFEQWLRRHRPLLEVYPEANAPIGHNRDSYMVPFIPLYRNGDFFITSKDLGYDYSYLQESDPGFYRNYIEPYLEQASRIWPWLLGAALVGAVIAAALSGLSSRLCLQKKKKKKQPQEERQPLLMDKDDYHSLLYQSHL
The data set can be described thus: Cellular tyrosinase activity assay using B16F10 cells. To be noted: 1, 2, and 5 μM, IBMX 200 μM plus α-MSH 1 μM, 72 h. The data set is classed as cell-based, murine. How it is done: After 72 h of incubation, the B16F10 cellular tyrosinase inhibitory activity was evaluated by measuring the optical density at 475 nm.
To evaluate the effect of compounds 5 and 9 on cellular tyrosinase activity, B16F10 cells (5000 cells/well) were inoculated in a 6-well plate and cultured for 24 h under the same conditions as the cell culture. […] The plate was incubated in a 5% CO2 incubator maintained at 37 °C for 1 h. Each well was treated with stimulators (1 μM α-MSH [Alomone Labs^TM, Jerusalem, Israel] and 200 μM IBMX [Thermo Fisher, Rockford, IL, USA]) and incubated in a CO2 incubator for 72 h. The cells were rinsed twice with PBS (pH 7.4) and treated with 100 μL lysis buffer solution consisting of Triton X-100 (1%; 5 μL), phosphate buffer (50 mM; pH 6.5; 90 μL), and phenylmethanesulfonyl fluoride (2 mM; 5 μL). The lysates were placed for 30 min at −80 °C. After centrifuging at 10,000 g and 4 °C for 10 min, an aliquot (80 μL) of the supernatants was transferred to each well of a 96-well plate, and 20 μL of L-dopa solution (10 mM) was added to each well. The optical density at 475 nm was recorded every min for 10 min to determine cellular tyrosinase activity.

The target of data set [2] is T2, B16F10 cell tyrosinase (Mus musculus, UniProt P11344).
T2 construct: endogenous in cells; host or cells: B16F10 murine cells, stimulated with α-MSH and IBMX
T2 sequence (P11344 19-533): T1 sequence (P11344 19-533)
The data set can be described thus: In situ cellular tyrosinase activity assay using B16F10 cells. In kind it is cell-based, murine. To be noted: 1, 2, and 5 μM, IBMX plus α-MSH, 72 h, L-dopa 2 h. How it is done: After 72 h of incubation, the cells were treated with an excessive amount of L-dopa for 2 h, and then the melanin-stained cells were photographed, and the pigmented areas of the cells were determined using an ATTO CS Analyzer (ATTO, Tokyo, Japan).
B16F10 (3 × 10^3 cells/well) cells in a 24-well plate were incubated for 24 h in a 5% CO2 incubator maintained at 37 °C. […] Stimulators (α-MSH and IBMX; 1 μM and 200 μM, respectively) were exposed to cells 1 h after treatment with the test sample, and the cells were incubated for 72 h in a 5% CO2 incubator. The cells were fixed for 40 min using paraformaldehyde solution (4%) (Sigma-Aldrich, St. Louis, MO, USA), washed with PBS (pH 7.4), and permeabilized for 2 min using Triton X-100 (0.1%). After washing twice with PBS, each well was exposed to L-dopa solution (500 μL; 2 mM). After incubation for 2 h, images of the cells stained with excess melanin were obtained using a camera connected to a microscope (Motic, Hong Kong).

For data set [3], the target named is T3, mushroom tyrosinase (Agaricus bisporus, UniProt C7FF04). The data set can be described thus: Mushroom tyrosinase inhibitory activity assay (L-dopa or L-tyrosine as substrate). To be noted: 50 μM, read-out: Inhibition (%, Mean ± SEM) at 50 μM (converted). In kind it is biochemical. As to the method: In the inhibition experiments, L-dopa and L-tyrosine were used as enzyme substrates.
The plate was incubated at 37 °C for 30 min, and absorbance of dopachrome formation was recorded spectrophotometrically at 475 nm using a VersaMax® Elisa (VE) microplate reader (Molecular Devices, San Jose, CA, USA) to determine tyrosinase inhibition activity. A VE microplate reader was used in all subsequent experiments to measure optical density. All experiments were carried out independently three times.
Target sequence in this assay (C7FF04 2-392): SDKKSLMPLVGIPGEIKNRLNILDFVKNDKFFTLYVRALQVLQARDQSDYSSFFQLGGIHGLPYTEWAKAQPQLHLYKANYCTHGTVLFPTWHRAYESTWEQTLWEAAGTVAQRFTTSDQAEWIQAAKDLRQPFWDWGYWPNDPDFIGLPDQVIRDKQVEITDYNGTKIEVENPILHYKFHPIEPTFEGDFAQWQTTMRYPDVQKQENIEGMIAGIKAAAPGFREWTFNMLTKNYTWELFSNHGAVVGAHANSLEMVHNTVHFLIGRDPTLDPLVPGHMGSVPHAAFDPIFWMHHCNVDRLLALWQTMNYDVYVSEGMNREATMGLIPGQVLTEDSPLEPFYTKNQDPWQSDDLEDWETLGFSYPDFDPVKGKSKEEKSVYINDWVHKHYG

Data set [4] deals with T3, mushroom tyrosinase. The data set can be described thus: Kinetic analysis of mushroom tyrosinase (Lineweaver–Burk and Dixon plots). In kind it is biochemical. Details: purchased Sigma-Aldrich. Conditions: substrate L-dopa. How it is done:
Therefore, the mechanism of inhibition was investigated using mushroom tyrosinase. At various concentrations of L-dopa, the initial dopachrome production rate was investigated at four different concentrations of 5 (0, 20, 40, and 80 μM) and 9 (0, 0.5, 1.0, and 2.0 μM).
The Lineweaver–Burk plot for each compound was re-plotted by plotting the reciprocal of the initial dopachrome production rate vs. the […] to create a Dixon plot for each compound (Figure 3C,D for compounds 5 and 9, respectively). […] The absolute value of the x-coordinate of the merged point represents the inhibition constant (Ki), which indicates the potency of the inhibitor.
Kinetic analysis of mushroom tyrosinase was performed by recording the initial dopachrome formation rate in the presence of compounds 5 and 9. […] The optical density of dopachrome production in each well was recorded at 475 nm at 5 min intervals for 30 min. Compounds were tested at 80, 40, 20, and 0 μM for 5 and at 2, 1.0, 0.5, and 0 μM for 9, respectively. Potting the inverse of the substrate concentration vs. the reciprocal of the initial dopachrome production rate generated Lineweaver–Burk plots.
Target sequence in this assay (C7FF04 1-392): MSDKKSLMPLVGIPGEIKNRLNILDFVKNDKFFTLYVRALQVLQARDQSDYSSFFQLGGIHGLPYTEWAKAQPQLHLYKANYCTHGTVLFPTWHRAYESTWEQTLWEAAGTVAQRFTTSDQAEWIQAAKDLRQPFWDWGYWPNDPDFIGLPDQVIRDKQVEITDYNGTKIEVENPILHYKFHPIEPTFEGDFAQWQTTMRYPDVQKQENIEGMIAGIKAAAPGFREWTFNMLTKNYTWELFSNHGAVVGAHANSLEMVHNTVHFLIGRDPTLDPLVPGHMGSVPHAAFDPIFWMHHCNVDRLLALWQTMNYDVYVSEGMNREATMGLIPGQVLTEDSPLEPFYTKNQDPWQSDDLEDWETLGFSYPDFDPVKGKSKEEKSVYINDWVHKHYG

For data set [5], the system named is HaCaT cells. The data set can be described thus: Cytotoxicity assay on HaCaT cells (EZ-Cytox). The data set is classed as cell-based, human. To be noted: 1, 2, 5, 10, and 20 μM, 24 h. How it is done: In addition to melanocytes, keratinocytes are the primary cells present in the epidermis. […] Each compound was treated at concentrations of 0, 1, 2, 5, 10, and 20 μM for 24 h, and cell viability was measured using the EZ-Cytox solution.
The effect of compounds 5 and 9 on cell viability of HaCaT and B16F10 cells was assessed using an EZ-Cytox solution (EZ-1000®, DoGenBio, Seoul, Republic of Korea). HaCaT (5 × 10^3 cells/well) and B16F10 (1 × 10^3 cells/well) cells were seeded in a 96-well plate, respectively, and cultured for 24 h under the same conditions as the cell culture. Each well was treated with 5 and 9 at 0, 1, 2, and 5 μM for B16F10 cells and 0, 1, 2, 5, 10, and 20 μM for HaCaT cells. The plates were incubated for 72 h for B16F10 cells and 24 h for HaCaT cells under a CO2 incubator. Each well was treated with the EZ-Cytox solution (10 μL), and the plate was left for 2 h under a CO2 incubator. Well optical density was measured at 450 nm to determine cytotoxicity.

In data set [6] the test system is B16F10 cells. Description: Cellular melanin content assay using B16F10 cells. In kind it is cell-based, murine. How it is done: After 72 h of incubation, the melanin content was evaluated by measuring the optical density at 405 nm.
The plate was incubated in a CO2 incubator for 1 h. Each well was treated with stimulators (α-MSH and IBMX; 1 μM and 200 μM, respectively) and incubated in a CO2 incubator for 72 h. The incubated cells were rinsed twice with PBS (pH 7.4). 1N–NaOH solution (100 μL) was added to each well and warmed at 60 °C for 1 h. The lysates were transferred to each well of a 96-well plate. The optical density was measured at 405 nm.

Data set [7] has as its system zebrafish embryos. Description: In vivo pigmentation assay using zebrafish embryos. Details: species or system Danio rerio. To be noted: kojic acid 20 mM; treated at 24 hpf, measured at 72 hpf. How it is done: To identify whether the synthesized compounds could exert anti-melanogenic effects in vivo, in vivo experiments were performed using zebrafish embryos. Freely obtained zebrafish embryos were transferred to a culture dish containing an E3-MB solution and incubated at 28 °C until use. For a preliminary experiment, zebrafish embryos were dechorionated using Pronase® (Sigma-Aldrich) at 20 h post fertilization (hpf), and each compound at 0.1 mM was exposed to five zebrafish embryos in E3 solution at 24 hpf. The depigmentation abilities were compared at 72 hpf to select the compounds used in the main experiments. From the preliminary experiments (n = 1), five compounds (2, 5, and 11–13) were selected for the main depigmentation experiments (n = 3). As in the preliminary experiment, the obtained zebrafish embryos were dechorionated at 20 hpf, and each selected compound (0.1 mM) was administered to six zebrafish embryos in the E3 solution at 24 hpf. The pigmentation of zebrafish larvae was photographed and measured in dorsal and lateral views at 72 hpf using an ATTO CS analyzer (ATTO, Tokyo, Japan). […] Pigmentation of zebrafish larvae was imaged using the SMZ745T microscope (Nikon, Tokyo, Japan), and the pigmented areas were measured in dorsal and lateral views at 72 hpf using an ATTO CS analyzer (ATTO, Tokyo, Japan).

What is called inhibition is the relative decrease from the control value, in per cent. As a reminder, the Ki is a measure of affinity in units of concentration, obtained from inhibition or displacement. As for `Oc1ccc(-c2nc3cc4c(cc3s2)OCO4)cc1` [Compound 5, 4-([1,3]Dioxolo[4′,5′:4,5]benzo[1,2-d]thiazol-6-yl)phenol], the cellular tyrosinase activity result in data set [1] is recorded as “significantly decreased the cellular tyrosinase activity”. The “number of cells strongly stained with melanin (in situ tyrosinase)” value in data set [2] is “evidently reduced the number of cells strongly stained with melanin”. Further, the values for the inhibition at 50 µM in data set [3] (substrate L-dopa) and in data set [3] (substrate L-tyrosine) were 63.3% and 61.4%, respectively. Moreover, in data set [4] (Dixon plot, read-out: inhibition constant (Ki)), the Ki was found to be 46 µM. In addition, in data set [4] (Lineweaver–Burk plot), the mechanism of inhibition result is on record as “competitive inhibitors”. The “cytotoxicity (cell viability)” value in data set [5] was “None of the compounds revealed significant cytotoxicity up to 20 μM”. Moreover, the melanin content result in data set [6] (1, 2, and 5 μM, IBMX 200 μM plus α-MSH 1 μM, 72 h) is given as “significantly reduced the stimulator-induced melanin contents”. Moreover, the “melanin production inhibition compared with kojic acid” value in data set [6] (same concentration (5 μM)) is listed as “inhibited melanin production more potently than kojic acid”.
Consider `O=c1cc(CO)occ1O` [kojic acid], for which the “depigmentation effect on zebrafish larvae” value in data set [7] is on record as “significant depigmentation effect”.
